The results in this text go back to ChEMBL document CHEMBL1143466, “Conformationally constrained N1-arylsulfonyltryptamine derivatives as 5-HT6 receptor antagonists” (Bioorg Med Chem Lett, 2005).

By Ki is commonly meant the dissociation constant of the complex between target and ligand, obtained from inhibition or displacement. Low readings indicate a stronger hold on the target, high ones a looser hold on the target. What is called Emax is the size of the effect at its maximum, as opposed to the concentration needed. Usually EC50 stands for the midpoint of the concentration-response curve. A low value points to an effect from little substance.

Structures are written as SMILES.

Experiment [1] has as its target T1, 5-hydroxytryptamine receptor 6 (Homo sapiens, UniProt P50406). Briefly: Displacement of [3H]LSD from cloned human 5-hydroxytryptamine 6 receptor expressed in HeLa cells. It is filed as cell-based. In general terms: Displacement assays read how much labelled ligand stays bound in the presence of the test substance.
Experiment [2] concerns the target T1, 5-hydroxytryptamine receptor 6. In words: Maximum effective concentration for cAMP production in HeLa cells expressing human 5-HT6 receptors. The format is functional, cell-based. A general note: Changes in cAMP serve as a functional read-out for many G protein-coupled receptors.
For experiment [3] the target is unchanged. In words: Effective concentration for cAMP production in HeLa cells expressing human 5-HT6 receptors. The format is functional, cell-based.

T1 sequence (P50406 whole entry): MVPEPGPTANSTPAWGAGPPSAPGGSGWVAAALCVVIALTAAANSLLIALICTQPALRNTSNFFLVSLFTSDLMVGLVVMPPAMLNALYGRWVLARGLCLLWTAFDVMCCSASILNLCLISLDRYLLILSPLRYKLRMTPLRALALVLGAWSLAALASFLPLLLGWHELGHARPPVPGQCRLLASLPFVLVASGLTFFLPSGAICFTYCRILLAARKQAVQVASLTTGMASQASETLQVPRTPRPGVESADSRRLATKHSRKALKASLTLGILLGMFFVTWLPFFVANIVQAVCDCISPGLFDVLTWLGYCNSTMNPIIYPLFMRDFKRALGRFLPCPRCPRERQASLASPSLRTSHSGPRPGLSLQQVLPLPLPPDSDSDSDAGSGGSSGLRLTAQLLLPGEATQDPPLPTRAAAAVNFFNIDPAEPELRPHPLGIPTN

`O=S(=O)(c1cccc(F)c1)n1cc(C2=CCCNC2)c2ccccc21`: the inhibition constant (Ki) in experiment [1] is 8.5 nM. Moreover, the Emax in experiment [2] was found to be 51.5%. The compound further displayed an EC50 in experiment [3] of 270 nM.

With `O=S(=O)(c1ccccc1F)n1cc(C2=CCCNC2)c2ccccc21`, the inhibition constant Ki in experiment [1] was found to be 9.2 nM. In experiment [2], this compound displayed an Emax of 52%. In experiment [3], this compound showed an EC50 of 51 nM.
